The values below come from patent publication EP1828393B1 (priority 2004, dated 2006).

The data set is described as follows: Miscibility of glycolonitrile with water. It counts as physicochemical. Conditions: 25 °C. From the text:
As the reaction progresses, the α-hydroxynitrile dissolves into the aqueous phase, and eventually a single phase product mixture is obtained. The reaction may also be run by adding the α-hydroxynitrile to the reaction mixture at a rate approximately equal to the enzymatic hydrolysis reaction rate, thereby maintaining a single-phase aqueous reaction mixture, and avoiding the potential problem of substrate inhibition of the enzyme at high starting material concentrations.

On to `N#CCO` [Glycolonitrile, glycolonitrile], for which the miscibility with water result is “completely miscible with water in all proportions”.
